Measurements reported in PMC5613016, “GRL-09510, a Unique P2-Crown-Tetrahydrofuranylurethane -Containing HIV-1 Protease Inhibitor, Maintains Its Favorable Antiviral Activity against Highly-Drug-Resistant HIV-1 Variants in vitro” (Scientific Reports, 2017).

Assays:
HIV-2ROD = assay: microbe, parasite or virus in culture; assay type: cell-based
Experimental: (§1) The susceptibility of HIV-1LAI or HIV-2ROD to various compounds was determined as previously described[20]–[22]. Briefly, MT-2 cells (10^4/ml) were exposed to 100 TCID50 of HIV-1LAI or HIV-2ROD in the presence or absence of various concentrations of compounds in 96-well plates and were incubated at 37 °C for 7 days. After incubation, 100 μl of the medium was removed from each well, 3-(4,5-dimetylthiazol-2-yl)-2,5-diphenyltetrazolium bromide (MTT) solution (10 μl, 7.5 mg/ml in PBS) was added to each well, followed by incubation at 37 °C for 2 h. […] To determine the sensitivity of clinically isolated HIV-1s to compounds, PHA-PBMC (10^6/ml) were exposed to 50 TCID50 of each HIV-1 and cultured in the presence or absence of various concentrations of compounds in 10-fold serial dilutions in 96-well plates. In determining the drug-susceptibility of certain laboratory HIV-1 strains, MT-4 cells were employed as target cells as previously described[23],[24]. MT-4 cells (10^5/ml) were exposed to 100 TCID50 of drug-resistant HIV-1s in the presence or absence of various concentrations of compounds and were incubated at 37 °C. On day 7, the supernatants were harvested and the amounts of p24 were determined by using a fully-automated chemiluminescent enzyme immunoassay system (Lumipulse f: Fujirebio, Tokyo)[35]–[37]. […] All assays were performed in duplicate, and EC50 shown in this report represent average values of two to four independent experiments. PHA-PBMCs were derived from a single donor in each independent experiment. The research protocols described in the present study were carried out in accordance with relevant guidelines and regulations, and were approved in Ethics Committee for Epidemiological and General Research at the Faculty of Life Sciences, Kumamoto University.

HIV-1LAI = assay: microbe, parasite or virus in culture; assay type: cell-based
Experimental: as §1

[1] = system: laboratory and primary clinical HIV-1 isolates; assay: Antiviral activity, summary over strains; assay type: cell-based; settings: Human immunodeficiency virus 1; range over isolates; read-out: EC50 against laboratory and primary clinical HIV-1 isolates
Experimental: (§2) The susceptibility of HIV-1LAI or HIV-2ROD to various compounds was determined as previously described[20]–[22]. Briefly, MT-2 cells (10^4/ml) were exposed to 100 TCID50 of HIV-1LAI or HIV-2ROD in the presence or absence of various concentrations of compounds in 96-well plates and were incubated at 37 °C for 7 days. After incubation, 100 μl of the medium was removed from each well, 3-(4,5-dimetylthiazol-2-yl)-2,5-diphenyltetrazolium bromide (MTT) solution (10 μl, 7.5 mg/ml in PBS) was added to each well, followed by incubation at 37 °C for 2 h. […] To determine the sensitivity of clinically isolated HIV-1s to compounds, PHA-PBMC (10^6/ml) were exposed to 50 TCID50 of each HIV-1 and cultured in the presence or absence of various concentrations of compounds in 10-fold serial dilutions in 96-well plates. In determining the drug-susceptibility of certain laboratory HIV-1 strains, MT-4 cells were employed as target cells as previously described[23],[24]. MT-4 cells (10^5/ml) were exposed to 100 TCID50 of drug-resistant HIV-1s in the presence or absence of various concentrations of compounds and were incubated at 37 °C. On day 7, the supernatants were harvested and the amounts of p24 were determined by using a fully-automated chemiluminescent enzyme immunoassay system (Lumipulse f: Fujirebio, Tokyo)[35]–[37]. […]

[2] = Cytotoxicity against MT-2 cells (MTT assay); assay type: cell-based; settings: human
Experimental: as §1

[3] = system: HIV-1NL4-3 variants selected with ATV, LPV and APV; assay: p24 assay in MT-4 cells, summary over PI-selected variants; assay type: cell-based
Experimental: as §2

HIV-1NL4-3 [4] = assay: Viral growth kinetics in MT-4 cells (p24); assay type: cell-based; settings: as low as 0.01 µM, 7 days
Experimental: (§3) The GRL-09510-resistant variant at passage 36 was propagated in fresh MT-4 cells without GRL-09510 for 7 days, and aliquoted HIV-1_9510 ^R P36 viral stocks were stored at −80 °C. MT-4 cells (3.2 × 10^5) were exposed to the HIV-1_9510 ^R P36 or wild-type HIV-1NL4-3 preparation containing 10 ng/ml p24 in 6-well plates for 3 hours, and the infected MT-4 cells were washed with fresh medium, divided into 4 fractions and each cultured with or without GRL-09510 (final concentration of MT-4 cells 10^4/ml, and drug concentrations 0, 0.01, 0.1 and 1 μΜ). The amounts of p24 were measured every two days for up to 7 days.

HIV-1_9510 ^R P36 = assay: Viral growth kinetics in MT-4 cells (p24); assay type: cell-based
Experimental: as §3

[5] = system: HIV-1ERS104pre (wild-type); assay: p24 production inhibition in PHA-PBMC; assay type: cell-based; settings: Human immunodeficiency virus 1, PHA-PBMC, p24 Gag production
Experimental: as §1

HIV-1MDRmix DRV ^R 20P = assay: p24 production inhibition in PHA-PBMC; assay type: cell-based
Experimental: as §1

HIV-1MDR/TM = assay: p24 production inhibition in PHA-PBMC; assay type: cell-based
Experimental: as §1

HIV-1BaL (subtype B, R5) = assay: p24 production inhibition in PHA-PBMC; assay type: cell-based; settings: Human immunodeficiency virus 1, PHA-PBMC, p24 Gag production
Experimental: as §1

HIV-1MDR/B = assay: p24 production inhibition in PHA-PBMC; assay type: cell-based
Experimental: as §1

HIV-1NL4-3 [6] = assay: In vitro selection of resistant HIV-1 variants in MT-4 cells; assay type: cell-based
Source text: MT-4 cells (10^5/ml) were exposed to HIV-1NL4-3 (500 TCID50) and cultured in the presence of compounds at an initial concentration of its EC50 value. Viral replication was monitored by the determination of the amount of p24 produced by MT-4 cells. The supernatants were harvested on day 7 and were used to infect fresh MT-4 cells for the next round of culture in the presence of increasing concentrations of each compound. Proviral DNAs obtained from the lysates of infected cells were subjected to sequencing. This selection procedure was carried out until the drug concentration reached 5 μM as previously described[20]–[22]).

[7] = system: HIV-192UG029 (subtype A, X4); assay: p24 production inhibition in PHA-PBMC; assay type: cell-based, HIV-1; settings: Human immunodeficiency virus 1, read-out: EC50 HIV-192UG029 (subtype A, X4)
Experimental: as §1

HIV-1I47V = assay: p24 assay in MT-4 cells, recombinant clone; assay type: cell-based; settings: Human immunodeficiency virus 1, MT4
Experimental: as §1
(§4) To generate HIV-1 clones carrying the desired AA substitutions, site-directed mutagenesis was performed with a QuikChange site-directed mutagenesis kit (Stratagene, La Jolla, CA), and the AA substitution-containing genomic fragments were introduced into pHIV-1NL4-3Sma, which had been created to have a SmaI site by changing two nucleotides (2590 and 2593) of pHIV-1NL4-3.

HIV-1I84V = assay: p24 assay in MT-4 cells, recombinant clone; assay type: cell-based; settings: Human immunodeficiency virus 1, MT4
Experimental: as §1, §4

HIV-1T91A = assay: p24 assay in MT-4 cells, recombinant clone; assay type: cell-based; settings: Human immunodeficiency virus 1, MT4
Experimental: as §1, §4

HIV-1L10F = assay: p24 assay in MT-4 cells, recombinant clone; assay type: cell-based; settings: Human immunodeficiency virus 1, MT4
Experimental: as §1, §4

[8] = compared to EC50 for HIV-1ERS104pre

COc1ccc(S(=O)(=O)N(CC(C)C)CC(O)C(Cc2ccccc2)NC(=O)OC2C3COC4OCC2C4C3)cc1 (centres unmarked) [GRL-09510]
EC50 (HIV-2ROD; MT-2 cells, 100 TCID50, MTT assay, read-out: EC50 Against HIV-2ROD): 1.8 ± 0.1 nM
Selectivity Index (CC50/EC50) MT2/HIV-2ROD (HIV-2ROD; ratio of CC50 to EC50 against HIV-2ROD): 21,667
EC50 (HIV-1LAI; Human immunodeficiency virus 1, MT2, MT-2 cells, 100 TCID50, MTT assay, read-out: EC50 Against HIV-1LAI): 1.4 ± 0.9 nM
Selectivity Index (CC50/EC50) MT2/HIV-1LAI (HIV-1LAI; ratio of CC50 to EC50 against HIV-1LAI): 27,857
EC50 [1]: 1.4 to 2.8 nM
CC50 [2]: 39000 ± 700 nM
EC50 ([3]; Human immunodeficiency virus 1, MT4, MT-4 cells, variants selected with up to 5 µM ATV, LPV, APV, read-out: EC50 against PI-selected HIV-1NL4-3 variants): 3.7 to 4.8 nM
fold-differences of EC50 against PI-selected variants ([3]; compared to against HIV-1NL4-3): 1~2
growth of HIV-1NL4-3 in the presence of drug (HIV-1NL4-3 [4]): failed to grow
replication of HIV-1_9510 ^R P36 in the presence of drug (HIV-1_9510 ^R P36; 1 µM): completely suppressed
growth of HIV-1_9510 ^R P36 in the presence of drug (HIV-1_9510 ^R P36; 0.01 and 0.1 µM, 7-day culture): propagated
EC50 [5]: 3.5 ± 0.1 nM
fold more effective than DRV against HIV-1DRV ^R 20P (HIV-1MDRmix DRV ^R 20P; PHA-PBMC, p24): 12 fold
fold change of EC50 HIV-1MDRmix DRV ^R 20P (HIV-1MDRmix DRV ^R 20P; [8]): 7
fold change in EC50 HIV-1MDRmixDRVR20P (HIV-1MDRmix DRV ^R 20P; compared to HIV-1WT/ERS104pre, Supplemental Table 4): 7
EC50 (HIV-1MDRmix DRV ^R 20P; read-out: EC50 HIV-1MDRmix DRV ^R 20P, PHA-PBMC, p24 Gag production): 25 ± 1 nM
EC50 (HIV-1MDR/TM; PHA-PBMC, p24 Gag production): 4 ± 0.6 nM
fold change of EC50 HIV-1MDR/TM (HIV-1MDR/TM; [8]): 1
EC50 (HIV-1BaL (subtype B, R5)): 3.1 ± 0.4 nM
EC50 (HIV-1MDR/B; PHA-PBMC, p24 Gag production): 3.7 ± 0.1 nM
fold change of EC50 HIV-1MDR/B (HIV-1MDR/B; [8]): 1
selection concentration reached after 24 passages (HIV-1NL4-3 [6]; HIV-1NL4-3 first exposed to 0.003 µM): 0.105 µM
concentrations in which the virus began continuously failing to propagate (HIV-1NL4-3 [6]; at around passage 30, selection discontinued at passage 37): > 0.27 µM
fold greater selection concentration than the initial concentration after 24 passages (HIV-1NL4-3 [6]; initial 0.003 µM): 35 fold
EC50 [7]: 2.7 ± 0.1 nM
EC50 (HIV-1I47V): 3.6 ± 0.5 nM
EC50 (HIV-1I84V): 3.3 ± 0.3 nM
EC50 (HIV-1T91A): 3.3 ± 0.4 nM
EC50 (HIV-1L10F): 4.4 ± 0.2 nM
